According to patent publication EP1115693B9, “SUBSTITUTED POLYCYCLIC ARYL AND HETEROARYL $i([sequence])-HETEROALKYLAMINES USEFUL FOR INHIBITING CHOLESTERYL ESTER [sequence] PROTEIN ACTIVITY” (Monsanto Company, priority 1998, dated 2000):

How the values were obtained:
CETP [1] = target: T1, CETP (Homo sapiens, UniProt P11597); assay: Assay of CETP inhibition in human plasma: transfer of [3H]CE from [3H]CE-HDL to VLDL and LDL; type: biochemical; parameters: Blood was obtained from healthy volunteers; from tissue; host or cells: pooled human EDTA plasma from healthy volunteers; conditions: inhibition of transfer of [3H]CE from [3H]CE-HDL to VLDL and LDL
T1 sequence (P11597 18-493): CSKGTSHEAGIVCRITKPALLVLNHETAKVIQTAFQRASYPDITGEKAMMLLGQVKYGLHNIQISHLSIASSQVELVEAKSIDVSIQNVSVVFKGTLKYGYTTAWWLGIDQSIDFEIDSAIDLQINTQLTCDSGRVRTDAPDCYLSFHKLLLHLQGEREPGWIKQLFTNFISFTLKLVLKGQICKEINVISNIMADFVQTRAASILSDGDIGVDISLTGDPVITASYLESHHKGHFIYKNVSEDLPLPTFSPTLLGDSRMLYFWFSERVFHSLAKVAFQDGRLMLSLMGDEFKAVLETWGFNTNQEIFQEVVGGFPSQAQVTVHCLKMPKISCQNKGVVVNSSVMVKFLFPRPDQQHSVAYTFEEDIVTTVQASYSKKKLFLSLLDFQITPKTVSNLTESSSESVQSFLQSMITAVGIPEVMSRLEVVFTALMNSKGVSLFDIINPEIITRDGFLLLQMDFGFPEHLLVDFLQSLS
Procedure: ASSAY OF CETP INHIBITION IN HUMAN PLASMA
Blood was obtained from healthy volunteers, recruited from the personnel of Monsanto Company, Saint Louis, MO. Blood was collected in tubes containing EDTA (EDTA plasma pool). The EDTA human plasma pool, previously stored at -20 °C, was thawed at room temperature and centrifuged for 5 minutes to remove any particulate matter. […] Equal volumes (396 µL) of the plasma containing the [^3H]CE-HDL were added by pipette into micro tubes (Titertube®, Bio-Rad laboratories, Hercules, CA). Inhibitor compounds, dissolved as 20-50 mM stock solutions in DMSO, were serially diluted in DMSO (or an alternative solvent in some cases, such as dimethylformamide or ethanol). Four µL of each of the serial dilutions of inhibitor compounds or DMSO alone were then added to each of the tubes containing plasma (396 µL). After mixing, triplicate aliquots (100 µL) from each plasma tube were then transferred to wells of 96-well roundbottomed polystyrene microtiter plates (Corning, Corning, NY). Plates were sealed with plastic film and incubated at 37 °C for 4 hours. "Test" samples contained plasma with dilutions of inhibitor compounds. "Control" samples contained plasma with DMSO diluted to the same concentration as the test samples, but without inhibitor. "Blank" samples were prepared as "control" samples, but were left in the micro tubes at 4 °C for the 4 hour incubation and were then added to the microtiter wells at the end of the incubation period. VLDL and LDL were precipitated by the addition of 10 µL of precipitating reagent (1% (w/v) dextran sulfate (Dextralip50)/0.5 M magnesium chloride, pH 7.4) to all wells. The wells were mixed on a plate mixer and then incubated at ambient temperature for 10 min. The plates were then centrifuged at 1000 x g for 30 min at 10 °C. The supernatants (50 µL) from each well were then transferred to Picoplate™ 96 plate wells (Packard, Meriden. CT) containing Microscint™-40 (Packard, Meriden, CT). The plates were heat-sealed (TopSeal™-P, Packard, Meriden, CT) according to the manufacturer's directions and mixed for 30 min. Radioactivity was measured on a microplate scintillation counter (TopCount. Packard, Meriden, CT). The maximum percentage transfer in the control wells (% transfer) was determined using the following equation: % Transfer = ([dpmblank -dpmcontrol ] × 100)/(dpmblank) [formula]
The percentage of transfer relative to the control (% control) was determined in the wells containing inhibitor compounds was determined as follows: % Control = ([dpmblank -dpmtest ] × 100)/(dpmblank -dpmcontrol) [formula]
IC50 values were then calculated from plots of % control versus concentration of inhibitor compound. […]

CETP [2] = target: T1, CETP; assay: Assay of CETP inhibition using purified components (reconstituted buffer assay): transfer of [3H]CE from HDL to LDL; type: biochemical; parameters: made in house; host or cells: CHO cells (serum-free conditioned medium); conditions: 2 hours at 37°C
Procedure: ASSAY OF CETP INHIBITION USING PURIFIED COMPONENTS (RECONSTITUTED BUFFER ASSAY)
The ability of compounds to inhibit CETP activity was assessed using an in vitro assay that measured the rate of transfer of radiolabeled cholesteryl ester ([^3H]CE) from HDL donor particles to LDL acceptor particles. Details of the assay are provided by Glenn, K. C. et al. (Glenn and Melton, "Quantification of Cholesteryl Ester Transfer Protein (CETP): A) CETP Activity and B) Immunochemical Assay of CETP Protein," Meth. Enzymol., 263, 339-351 (1996)). Human recombinant CETP can be obtained from the serum-free conditioned medium of CHO cells transfected with a cDNA for CETP and purified as described by Wang, S. et al. (J. Biol. Chem. 267, 17487-17490 (1992)). To measure CETP activity, [^3H]CE-labeled-HDL, LDL, CETP and assay buffer (50 mM tris(hydroxymethyl)aminomethane, pH 7.4; 150 mM sodium chloride; 2 mM ethylenediamine-tetraacetic acid (EDTA); 1% bovine serum albumin) were incubated in a final volume of 200 µL, for 2 hours at 37°C in 96 well plates. […] The inhibitors were then diluted 1:1 with CETP in assay buffer, and then 25 µL of that solution was mixed with 175 µL of lipoprotein pool for assay. Following incubation, LDL was differentially precipitated by the addition of 50 µL of 1% (w/v) dextran sulfate/0.5 M magnesium chloride, mixed by vortex, and incubated at room temperature for 10 minutes. A potion of the solution (200 µL) was transferred to a filter plate (Millipore). After filtration, the radioactivity present in the precipitated LDL was measured by liquid scintillation counting.
This value was defined as the IC50.

| SMILES | IC50 (CETP [1]) [µM] | IC50 (CETP [2]) [µM] |
| --- | --- | --- |
| OC(CN(Cc1ccc(OC(F)(F)F)cc1)c1cccc(OC(F)(F)F)c1)C(F)(F)F (stereo not drawn) [compound 60] | 120 | 5.5 |
| CCC(C)Oc1cccc(CN(CC(O)C(F)(F)F)c2cccc(Oc3ccc(F)cc3)c2)c1 (stereo not drawn) [compound 650] | 30 | 0.41 |
| OC(CN(Cc1cccc(OC(F)(F)C(F)F)c1)c1cccc(N2CCC3(CC2)OCCO3)c1)C(F)(F)F (stereo not drawn) [compound 317] | > 100 | 3.4 |
| CC(C)c1ccc(Oc2cccc(N(Cc3cccc(OC(F)(F)C(F)F)c3)CC(O)C(F)(F)F)c2)cc1 (stereo not drawn) [compound 250] | 31 | 0.44 |
| OC(CN(Cc1cccc(OC(F)(F)C(F)F)c1)c1cccc(N2CCC(Cc3ccccc3)CC2)c1)C(F)(F)F (stereo not drawn) [compound 316] | > 100 | 3.1 |
| OC(CN(Cc1cccc(SC(F)(F)F)c1)c1cc(Oc2ccc(F)cc2)cc(C(F)(F)F)c1)C(F)(F)F (stereo not drawn) [compound 642] | 50 | 1.1 |
| OC(CN(Cc1cccc(OC(F)(F)C(F)F)c1)c1cccc(Oc2ccc(OC(F)(F)F)cc2)c1)C(F)(F)F (stereo not drawn) [compound 658] | 30 | 0.44 |
| OC(CN(Cc1cccc(OC(F)(F)C(F)F)c1)c1cccc(Oc2ccc(Cl)c(Cl)c2)c1)C(F)(F)F (stereo not drawn) [compound 256] | 7.8 |  |
| CCCCOc1cccc(CN(CC(O)C(F)(F)F)c2cccc(Oc3ccc(F)cc3)c2)c1 (stereo not drawn) [compound 649] | > 100 | 4.9 |
| OC(CN(Cc1cccc(OC(F)(F)C(F)F)c1)c1cccc(Oc2ccc(F)c(F)c2)c1)C(F)(F)F (stereo not drawn) [compound 638] | 11 | 0.26 |
| Cc1ccc(Oc2cccc(N(Cc3cccc(SC(F)(F)F)c3)CC(O)C(F)(F)F)c2)cc1 (stereo not drawn) [compound 637] | 8 | 0.47 |
| CC(C)Oc1cccc(CN(CC(O)C(F)(F)F)c2cccc(Oc3ccc(F)cc3)c2)c1 (stereo not drawn) [compound 647] | 13 | 0.52 |
| OC(CN(Cc1cccc(OC(F)(F)C(F)F)c1)c1cccc(OCc2ccccc2)c1)C(F)(F)F (stereo not drawn) [compound 373] | 12 | 0.22 |
| OC(CN(Cc1ccc(Cl)s1)c1cccc(OC(F)(F)F)c1)C(F)(F)F (stereo not drawn) [Example 321, 3-[[(5-chloro-2-thienyl)methyl][(3-trifluoromethoxy)phenyl]amino]-1,1,1-trifluoro-2-propanol] | > 100 |  |
| OC(CN(Cc1cccc(OC(F)(F)C(F)F)c1)c1cccc(Oc2ccc(F)cc2F)c1)C(F)(F)F (stereo not drawn) [compound 639] | 5 | 0.21 |
| OC(CN(Cc1ccc(OC(F)(F)F)cc1)c1ccccc1)C(F)(F)F (stereo not drawn) [compound 59] | 100 |  |

| SMILES | IC50 (CETP [1]) [µM] | IC50 (CETP [2]) [µM] |
| --- | --- | --- |
| OC(CN(Cc1ccc(Cl)s1)c1cccc(OC(F)(F)F)c1)C(F)(F)F (stereo not drawn) [compound 346] | > 100 | 7.7 |
| N#Cc1ccc(Oc2cccc(N(Cc3cccc(OC(F)(F)C(F)F)c3)CC(O)C(F)(F)F)c2)cc1 (stereo not drawn) [compound 657] | 24 | 1 |
| OC(CN(Cc1cccc(OC2CCCC2)c1)c1cccc(Oc2ccc(F)cc2)c1)C(F)(F)F (stereo not drawn) [compound 653] | 38 | 0.91 |
| CCCOc1cccc(CN(CC(O)C(F)(F)F)c2cccc(Oc3ccc(F)cc3)c2)c1 (stereo not drawn) [compound 648] |  | 0.83 |
| OC(CN(Cc1cccc(OC(F)(F)C(F)F)c1)c1cccc(OCc2cc(F)cc(C(F)(F)F)c2)c1)C(F)(F)F (stereo not drawn) [compound 411] |  | 0.25 |
| O=C(c1cccc(C(F)(F)F)c1)N(CC(O)C(F)(F)F)c1cccc(F)c1 (stereo not drawn) [Example 663, N-(3-fluorophenyl)-N-(3,3,3-trifluoro-2-hydroxypropyl)-3-(trifluoromethyl)benzamide] |  | 100 |
| OC(CF)CN(Cc1cccc(OC(F)(F)F)c1)Cc1cccc(OC(F)(F)F)c1 (stereo not drawn) [compound 697] |  | 55 |
| OC(CN(Cc1cccc(OC(F)(F)C(F)F)c1)c1cccc(Oc2cccc(F)c2)c1)C(F)(F)F (stereo not drawn) [compound 240] |  | 0.27 |
| O=C(O)c1ccc(COc2cccc(N(Cc3cccc(OC(F)(F)C(F)F)c3)CC(O)C(F)(F)F)c2)cc1 (stereo not drawn) [EX-435B, 4-[[3-[[[3-(1,1,2,2-tetrafluoroethoxy)phenyl]methyl](3,3,3-trifluoro-2-hydroxypropyl)amino]phenoxy]methyl]benzoic acid] |  | > 50 |
| OC(CN(Cc1cccc(OC(F)(F)F)c1)c1ccccc1)C(F)(F)F (stereo not drawn) [compound 73] | 100 |  |
| OC(CN(Cc1cccc(SC(F)(F)F)c1)c1cccc(Oc2ccc(F)cc2)c1)C(F)(F)F (stereo not drawn) [compound 636] |  | 0.39 |
| CCCc1ccc(Oc2cccc(N(Cc3cccc(OC(F)(F)C(F)F)c3)CC(O)C(F)(F)F)c2)cc1 (stereo not drawn) [compound 266] | 21 |  |
| OC(CN(Cc1cccc(OCC2CC2)c1)c1cccc(Oc2ccc(F)cc2)c1)C(F)(F)F (stereo not drawn) [compound 651] |  | 0.99 |
| Cc1ccc(Oc2cccc(N(Cc3cccc(OC(F)(F)C(F)F)c3)CC(O)C(F)(F)F)c2)cn1 (stereo not drawn) [compound 282] | 12 | 0.84 |
| Oc1cccc(CN(CC(O)C(F)(F)F)c2cccc(Oc3ccc(F)cc3)c2)c1 (stereo not drawn) [compound 635] |  | 80 |
